Source: patent US20250338846A1, “COMPOSITIONS HAVING PESTICIDAL UTILITY AND PROCESSES RELATED THERETO” (CORTEVA AGRISCIENCE, LLC, priority 2022, published 2025)

How the values were obtained:
Assay type in all cases: in vivo
[1] = test system: Western Flower Thrips (Frankliniella occidentalis, FRANOC); assay: Bioassay 3: Western Flower Thrips, cotton leaf disc dip, live WFT counted 3 days after treatment; conditions: Frankliniella occidentalis, foliar, 72 h; for pest or weed control at 0.005 % strength: AI alone 0.005 % w/v
Method: Stock solutions of Formula One and various active ingredients were prepared initially at a concentration of 8 mg/ml for Formula One and 1 mg/mL for the active ingredients, respectively, using acetone as a diluent. Stock solutions were prepared with Formula One as well as for each of the active ingredients individually. Test solutions were prepared from the stock solutions. Test solutions were prepared containing Formula One, the individual active ingredients, and mixtures of Formula One with each of the active ingredients. The test solution for Formula One was prepared by adding 500 μL of the stock solution to a 25 mL glass vial, then adding 500 μL of acetone, followed by the addition of 9 mL water with 0.025% Tween®) 20 to create a 0.04% (w/v) solution. The test solutions of the individual active ingredients were prepared by adding 500 μL of stock solution to a 25 mL glass vial, then adding 500 μL of acetone, followed by the addition of 9 mL water with 0.025% Tween®) 20 to create a 0.005% (w/v) solution. The test solutions containing mixtures of Formula One and the individual active ingredients were prepared by adding 500 μL of the active ingredient stock solution to a 25 mL glass vial, followed by 500 μL of the Formula One stock solution, then by the addition of 9 mL water with 0.025% Tween®) 20 to create a test solution containing 0.04% (w/v) Formula One and 0.005% (w/v) of the active ingredient. Each test solution was serially diluted to create desired doses of test solutions (0.005% (w/v), 0.00125% (w/v), 0.0003125% (w/v), 0.000078% (w/v), and 0.0000195% (w/v)). In test solutions containing mixtures of Formula One and the active ingredients, the active ingredients were diluted as described above, but the Concentration of Formula One was held constant (0.04% (w/v)).
The test solutions were tested against WFT using the following procedure: Leaf discs (2.7 cm in diameter) were cut from the true leaves of cotton plants. Leaf discs were dipped into the test solutions and shaken to ensure complete coverage of the leaf disc and then placed in Millipore®) PetriSlides containing a filter paper disc. Treated leaf discs were air dried for approximately 1 hour. Each leaf disc was infested with 5 WFT (9-10-day old nymphs) by placement on each leaf disc, and the PetriSlides were capped to prevent escape. Each treatment was replicated three times and the test treatments were held at approximately 26° C. and ambient relative humidity (RH) prior to grading. Reference discs (solvent check) were treated with the diluent only. Evaluation was conducted by counting the number of live WFT under magnification 3 days after treatment. Percent control was measured using Abbott's correction formula (W. S. Abbott, J. Econ. Entomol. 18 (1925), pp. 265-267) as follows:
where X=No. of live nymphs on solvent check leaf discs and Y=No. of live nymphs on treated leaf discs. In Table B3 the “Expected % Control” was calculated using the method described in Colby S. R., Weeds, 1967, 15, 20-22. Bioassay 4: Western Tarnished Plant Bug (Lygus hesperus, LYGUHE) (“WTPB”).

[2] = test system: Neotropical Brown Stink Bug (Euschistus heros, EUSCHE); assay: whole plant or invertebrate; conditions: Euschistus heros, 72 h, read-out: Average % Control AI
Method: X=No. of live nymphs on solvent check and Y=No. of live nymphs on treated bean segments. In Table B4 the “Expected % Control” was calculated using the method described in Colby S. R., Weeds, 1967, 15, 20-22. Bioassay 5: Neotropical Brown Stink Bug (Euschistus heros, EUSCHE) (“BSB”).
Stock solutions were prepared with Formula One as well as for each of the active ingredients individually. Test solutions were prepared from the stock solutions. Test solutions were prepared containing Formula One, the individual active ingredients, and mixtures of Formula One with each of the active ingredients. The test solution for Formula One was prepared by adding 500 μL of the stock solution to a 25 mL glass vial, then adding 500 μL of acetone, followed by the addition of 9 mL water with 0.025% Tween®) 20 to create a 0.04% (w/v) solution. The individual active ingredients were prepared by adding 500 μL of stock solution to a 25 mL glass vial, then adding 500 μL of acetone, followed by the addition of 9 mL water with 0.025% Tween®) 20 to create a 0.005% (w/v) solution. The test solutions containing mixtures of Formula One and the individual active ingredients were prepared by adding 500 μL of the active ingredient stock solution to a 25 mL glass vial, followed by 500 μL of the Formula One stock solution, then by the addition of 9 mL water with 0.025% Tween®) 20 to create a test solution containing 0.04% (w/v) Formula One and 0.005% (w/v) of the active ingredient. Each test solution was serially diluted to create desired doses of test solutions (0.01% (w/v), 0.0025% (w/v), 0.000625% (w/v), 0.000156% (w/v), and 0.000039% (w/v)). In test solutions containing mixtures of Formula One and the active ingredients, the active ingredients were diluted as described above, but the Concentration of Formula One was held constant (0.04% (w/v)).
The test solutions that were tested against BSB were similar to those described above for WTPB. Fresh green beans were cut into segments approximately 1.5 inches long. Four bean segments were added to each test solution and soaked for approximately 15 minutes. After soaking, a single bean fragment was removed and placed into a single well of a 32-well rearing tray (Frontier Agricultural Sciences™), on top of a round filter paper disc. A reference treatment (solvent check) was treated with the diluent only. Each treatment was replicated four times and the test treatments were held at approximately 26° C. and ambient relative humidity (RH) prior to grading. Bean segments were allowed to air dry for ˜30 minutes. Three BSB nymphs were added to and contained in each well with a clear perforated adhesive lid. The total number of living BSB nymphs was recorded 3 days after application. Scoring was based off the total number of living nymphs out of all four replicates. Percent control was measured using Abbott's correction formula (W. S. Abbott, J. Econ. Entomol. 18 (1925), pp. 265-267) as follows:
where X=No. of live nymphs on solvent check and Y=No. of live nymphs on treated bean segments. In Table B5 the “Expected % Control” was calculated using the method described in Colby S. R., Weeds, 1967, 15, 20-22. Bioassay 6: Beet Armyworm (Spodoptera exigua, LAPHEG) (BAW), and Diamondback Moth (Plutella xylostella, PLUTMA) (DBM).

[3] = test system: Sweet Potato Whitefly (Bemisia tabaci, BEMITA); assay: Bioassay 2: Sweet Potato Whitefly, spray on cotton seedlings at crawler emergence, nymphs counted 7-9 days after treatment; conditions: AI alone 0.1 (10-5) % w/v
Method: Stock solutions were prepared with Formula One as well as for each of the active ingredients individually. Test solutions were prepared from the stock solutions. Test solutions were prepared containing Formula One, the individual active ingredients, and mixtures of Formula One with each of the active ingredients. The test solutions for Formula One and the individual active ingredients were prepared by adding 500 μL of stock solution to a 25 mL glass vial, then adding 500 μL of acetone, followed by the addition of 9 mL water with 0.025% Tween®) 20 to create a 0.001% (w/v) solution. The test solutions containing mixtures of Formula One and the individual active ingredients were prepared by adding 500 μL of the active ingredient stock solution to a 25 mL glass vial, followed by 500 μL of the Formula One stock solution, then by the addition of 9 mL water with 0.025% Tween®) 20 to create a test solution containing 0.001% (w/v) Formula One and 0.001% (w/v) of the active ingredient. Each test solution was serially diluted to create desired doses of test solutions (0.001% (w/v), 0.0001% (w/v), 0.00001% (w/v), 0.000001% (w/v), 0.0000001% (w/v), and 0.00000001% (w/v)).
The test solutions were tested against SPW using the following procedure: Cotton seedlings grown in 3-inch pots, pruned so that only one true leaf remained, were used as test substrate. Adult B. tabaci were allowed to colonize the cotton plants and lay eggs for 24 hours after which all adults were removed from the plants using compressed air. Plants were monitored for egg development and, when crawler emergence was underway (>25% emergence based on visual examination using a microscope), the plants were sprayed using the test solutions and methods described above for green peach aphids (GPA). Treated plants were held in a holding room at approximately 25° C. and ambient relative humidity (RH) prior to grading. Evaluation was conducted by counting the number of developed 2-3 instar nymphs per plant under a microscope 7-9 days after treatment. Percent control was measured using Abbott's correction formula (W. S. Abbott, J. Econ. Entomol. 18 (1925), pp. 265-267) as follows:
where X=No. of live nymphs on solvent check plants and Y=No. of live nymphs on treated plants. In Table B2 the “Expected % Control” was calculated using the method described in Colby S. R., Weeds, 1967, 15, 20-22. Bioassay 3: Western Flower Thrips (Frankliniella occidentalis, FRANOC) (“WFT”).

[4] = test system: Green Peach Aphid (Myzus persicae, MYZUPE); assay: Bioassay 1: Green Peach Aphid, foliar spray on infested cabbage seedlings, live aphids counted three days after treatment
Method: Bioassay 1: Green Peach Aphid (Myzus persicae, MYZUPE) (“GPA”).
The stock solutions were prepared with Formula One as well as for each of the active ingredients individually. Test solutions were prepared from the stock solutions. Test solutions were prepared containing Formula One, the individual active ingredients, and mixtures of Formula One with each of the active ingredients. The test solutions for Formula One and the individual active ingredients were prepared by adding 750 microliters (μL) of stock solution to a 25 mL glass vial, then adding 750 μL of 1:1 acetone: methanol solvent, followed by the addition of 13.5 ml water with 0.025% Tween®) 20 to create a 0.0005% (weight/volume (w/v)) solution. The test solutions containing mixtures of Formula One and the individual active ingredients were prepared by adding 750 μL of the active ingredient stock solution to a 25 mL glass vial, followed by 750 μL of the Formula One stock solution, then by the addition of 13.5 mL water with 0.025% Tween®) 20 to create a test solution containing 0.0005% (w/v) Formula One and 0.0005% (w/v) of the active ingredient. Each test solution was serially diluted to create desired doses of test solutions (0.0005% (w/v), 0.000125% (w/v), 0.00003125% (w/v), 0.0000078% (w/v), 0.00000195% (w/v), and 0.0000005% (w/v)).
The test solutions were tested against GPA using the following procedure: Cabbage seedlings, grown in 3-inch pots with 2-3 small (3-5 centimeter (cm)) true leaves, were used as test substrate. The seedlings were infested with 20-50 GPA (wingless adult and nymph stages) one day prior to chemical application. Four pots with individual seedlings were used for each treatment. A hand-held aspirator-type sprayer was used for spraying a solution to both sides of […] leaves until runoff. Reference plants (solvent check) were sprayed with the diluent only (0.025% Tween®) 20 and 10% acetone:methanol (1:1) in water). Treated plants were held in a holding room for three days at approximately 25° C. and ambient relative humidity (RH about 20% to about 45%) prior to grading. Evaluation was conducted by counting the number of live aphids per plant under a microscope three days after treatment. Percent control was measured using Abbott's correction formula (W. S. Abbott, J. Econ. Entomol. 18 (1925), pp. 265-267) as follows:
where X=No. of live aphids on solvent check plants and Y=No. of live aphids on treated plants. In Table B1 the “Expected % Control” was calculated using the method described in Colby S. R., Weeds, 1967, 15, 20-22. Bioassay 2: Sweet Potato Whitefly (Bemisia tabaci, BEMITA) (“SPW”).

Structure (SMILES): CNC(=O)c1cc(Cl)cc(C)c1NC(=O)c1cc(Br)nn1-c1ncccc1Cl [Chlorantraniliprole]
- pest or weed control at 0.005 % strength [1]: 7%

Structure (SMILES): CCOCn1c(-c2ccc(Cl)cc2)c(C#N)c(Br)c1C(F)(F)F [Chlorfenapyr]
- pest or weed control at 0.0025 % strength ([2]; AI alone 0.0025 % w/v): 8%
- pest or weed control at 0.005 % strength [1]: 57%

Structure (SMILES): CNC(=O)c1cc(C#N)cc(C)c1NC(=O)c1cc(Br)nn1-c1ncccc1Cl [Cyantraniliprole]
- Average % Control AI [3]: 0%

Structure (SMILES): CN/C(=N/CC1CCOC1)N[N+](=O)[O-] (stereo not shown) [Dinotefuran]
- pest or weed control at 0.000156 % strength [2]: 17%

Structure (SMILES): COc1cccc(C(=O)NN(C(=O)c2cc(C)cc(C)c2)C(C)(C)C)c1C [Methoxyfenozide]
- Average % Control AI ([4]; AI alone 0.195 (10^-5) % w/v): 5%

Structure (SMILES): CC(COc1ccc(Oc2ccccc2)cc1)Oc1ccccn1 (stereo not shown) [Pyriproxyfen]
- pest or weed control at 0.00125 % strength ([1]; AI alone 0.00125 % w/v): 17%
- Average % Control AI [3]: 8%

Structure (SMILES): CCOC(=O)OC1=C(c2cc(C)ccc2C)C(=O)N[C@]12CC[C@@H](OC)CC2 [Spirotetramat]
- Average % Control AI ([4]; AI alone 0.05 (10^-5) % w/v): 15%
- pest or weed control at 7.8e-05 % strength ([1]; AI alone 0.000078 % w/v, read-out: Average % Control AI): 7%
